pIC50: −log10 of the molar value.
Tests used:
[1] = test system: MOLP8 cells; assay: CellTiter-Glo cell viability, MOLP8; type: cell-based, human
[2] = molecular target: T1, SF3b complex (Homo sapiens, UniProt O75533+Q7RTV0); assay: SF3B1 binding / scintillation proximity assay (SPA); details: competition with 2.5 nM [3H]-pladienolide B probe
T1 construct: endogenous in cells; host or cells: nuclear extracts
Procedure: A scintillation proximity assay was performed to measure the binding affinity of compounds (“payloads”) to the SF3b complex. Batch immobilization of anti-SF3B1 antibody (MBL) to anti-mouse PVT SPA scintillation beads (PerkinElmer) was prepared. For every 2.5 mg of nuclear extracts, 5 μg of anti-SF3B1 antibody and 1.5 mg of beads were mixed in 150 μL PBS. The antibody-bead mixture was incubated for 30 min at room temperature (RT) and centrifuged at 18,000 g for 5 min. 150 μL PBS was used to resuspend every 1.5 mg antibody-bead mixture. The beads were suspended and added to the prepared nuclear extracts. The slurry was incubated for 2 hours at 4° C. with gentle mixing. The beads were then collected by centrifuging at 18,000 g for 5 min, and washed twice with PBS+0.1% Triton X-100. After a final centrifugation step, every 1.5 mg of beads was suspended with 150 μL of PBS. SF3b complexes were tested for [^3H]-labeled pladienolide B probe binding ([^3H]-PB), synthesized as previously described (Kotake et al. (2007) Nat Chem Biol. 3(9):570-5). 100 μL binding reactions were prepared with 50 μL bead slurry and by adding varying concentrations of PB or PB-OH, and after 30 min pre-incubation, 2.5 nM of [^3H]-PB was added. The mixture was incubated for 30 min, and luminescence signals were read using a MicroBeta2 Plate Counter (PerkinElmer). […]

[3] = test system: OPM2 cells; assay: CellTiter-Glo cell viability, OPM2 (normal serum); type: cell-based, human
[4] = test system: MM1.S cells; assay: CellTiter-Glo cell viability, MM1.S; type: cell-based, human; details: MM1.S, 96 h
[5] = Caco-2 permeability; type: in vitro ADME; details: human
Procedure: Caco-2 cells were cultured for 21 days in transwell 24-well plates at 37° C., 95% humidity, 5% CO2. Integrity of cell monolayer was confirmed by TEER (transepithelial electrical resistance) and Lucifer yellow. Payloads were spiked in duplicate at 10 μM, separately, on both sides of the cell monolayer. Permeability rates from the apical to basolateral (A-B) direction and the basolateral to apical (B-A) direction were determined by sampling aliquots from both chambers immediately after treatment (t=0) and following incubation for 2 hours. Samples were protein precipitated with organic solvent containing internal standard and analyzed by LC-MS/MS (SCIEX; API 5500). The area ratio responses of payload/internal standard over time in both directions were used to generate permeability (cm/sec) values. Efflux ratio was calculated by dividing B-A/A-B. Control compounds for low and high permeability and efflux behaved as expected.

[6] = test system: splicing of Ad2.1 pre-mRNA in HeLa nuclear extract; assay: In vitro splicing (IVS), qPCR readout, Ad2.1 substrate; type: biochemical
Procedure: (§1) To evaluate payload activity in a cell-free system, an in vitro splicing assay was performed. The payloads were incubated with nuclear extracts and pre-mRNA substrate minigenes.
(§2) HeLa nuclear extract preparation: HeLa S3 cell pellets were resuspended in hypotonic buffer (10 mM HEPES pH 7.9, 1.5 mM MgCl2, 10 mM KCl, 0.2 mM PMSF, 0.5 mM DTT) and the suspension was brought up to a total of 5 packed cell volume (PCV). After centrifugation, the supernatant was discarded, and the cells were brought up to 3 PCV with hypotonic buffer and incubated on ice for 10 min. Cells were lysed using a dounce homogenizer and then centrifuged. The supernatant was discarded, and the pellet was resuspended with ½ packed nuclear volume (PNV) of low salt buffer (20 mM HEPES pH 7.9, 1.5 mM MgCl2, 20 mM KCl, 0.2 mM EDTA, 25% glycerol, 0.2 mM PMSF, 0.5 mM DTT), followed by ½ PNV of high salt buffer (same as low salt buffer except 1.4 M KCl). The nuclei were gently mixed for 30 min before centrifuging. The supernatant (nuclear extract) was then dialyzed into storage buffer (20 mM HEPES pH 7.9, 100 mM KCl, 0.2 mM EDTA, 20% glycerol, 0.2 mM PMSF, 0.5 mM DTT). Protein concentration was determined using NanoDrop 8000 UV-Vis spectrophotometer (ThermoFisher Scientific). […]

[7] = test system: MM1.R cells; assay: CellTiter-Glo cell viability, MM1.R; type: cell-based, human; details: 96 h
[8] = PAMPA permeability; type: in vitro ADME; details: read-out: Stability, Mean, Perm PAMPA
[9] = test system: splicing of Ad2.2 pre-mRNA in HeLa nuclear extract; assay: In vitro splicing (IVS), qPCR readout, Ad2.2 substrate; type: biochemical
Procedure: as §1, §2

With CC[C@H](O)[C@@H](C)[C@H]1O[C@@H]1C[C@@](C)(O)/C=C/C=C(\C)[C@H]1OC(=O)C[C@H](O)CC[C@@](C)(OC(C)=O)[C@@H](OC(=O)N2CCNCC2)/C=C/[C@@H]1C [D2, (2S,3S,6S,7R,10R,E)-7-acetoxy-10-hydroxy-2-((R,2E,4E)-6-hydroxy-7-((2R,3R)-3-((2R,3S)-3-hydroxypentan-2-yl)oxiran-2-yl)-6-methylhepta-2,4-dien-2-yl)-3,7-dimethyl-12-oxooxacyclododec-4-en-6-ylpiperazine-1-carboxylate] the GI50 ([1]; Homo sapiens, MOLP-8, 96 h, read-out: CTGlo Mean GI50 MOLP8 96 h) was 1.15 nM, the “CTGlo Mean LD50 MOLP8 96 h” value ([1]; payload alone, MOLP8, 96 h) was 12.99 nM and the pIC50 [2] was 7.90. The GI50 ([3]; Homo sapiens, OPM-2, 96 h, read-out: CTGlo Mean GI50 OPM2 96 h) was 1.69 nM, the “CTGlo Mean LD50 OPM2 96 h” value ([3]; payload alone, OPM2, 96 h) was 7.74 nM and the GI50 ([4]; Homo sapiens, read-out: CTGlo Mean GI50 MM1.S 96 h) was 1.69 nM. For the same compound, the “CTGlo Mean LD50 MM1.S 96 h” value ([4]; payload alone) was 7.74 nM, the efflux ratio at 2 h, 10 μM ([5]; B-A/A-B) was 9.4 and the Papp A→B at 2 h, 10 μM ([5]; apical to basolateral, 10 μM, 2 hours, read-out: Permeability, Mean, Caco-2 A-B Perm) was 0.94 ×10⁻⁶ cm/s. It also gave a Papp B→A at 2 h, 10 μM ([5]; basolateral to apical, 10 μM, 2 hours, read-out: Permeability, Mean, Caco-2 B-A Perm) of 0.1 ×10⁻⁶ cm/s, a pIC50 [6] of 7.56 and a GI50 ([7]; Homo sapiens, MM.1R, read-out: CTGlo Mean GI50 MM1.R 96 h) of 7.59 nM. The “CTGlo Mean LD50 MM1.R 96 h” value ([7]; payload alone, MM1.R) was 21.4 nM, the Papp [8] was less than 0.1 ×10⁻⁶ cm/s and the pIC50 [9] was 6.92.
